From patent publication US7425579B2, “Methods for inhibiting activity of polyamine transporters” (Universite Laval, priority 1998, dated 2008)

Assays:
T-47D cells = assay: Reversal of DFMO-induced cytostasis by exogenous spermidine in T-47D cells; type: cell-based, human; conditions: 50 μM BNSD-X (167-fold excess over 0.3 μM spermidine); 2 mM DFMO
Experimental: FIGS. 6A, 6B, 6C and 6D are graph showing that antagonism of DFMO-induced cytostasis by exogenous spermidine depends on the polyamine and linker structure of the compounds used in a method according to a preferred embodiment of the invention. In particular, T-47D cells were grown for 8-9 d with the indicated concentrations of spermidine in medium containing 1 mM aminoguanidine, in the presence of DFMO (●), transport inhibitor (□), DFMO plus transport inhibitor (▪), or in the absence of either agent (∘), and total DNA content per culture was then determined. Panels A, B, C, and D describe the effect of BNSD-X, BSD-X, BNSD-3 and BSD-3, respectively. Data are presented as the mean±SD for triplicate cultures from one out of at least two identical experiments;
FIGS. 8A and 8B are graphs representing the time course of the effect of a compound used in a method according to a preferred embodiment of the invention on rescue of DFMO-induced cytostasis by exogenous spermidine. In particular, at time zero, T-47D (panel A) or CHO-K1 (panel B) were seeded at 1×10^4 or 5×10^3 cells/well, respectively, in medium containing 1 mM aminoguanidine, plus either 0.3 μM spermidine (Spd, ●), 2 mM DFMO (□), Spd+DFMO (▪), 50 μM (A) or 100 μM (B) BNSD-X (Δ), BNSD-X+Spd (▴), BNSD-X+DFMO (□), BNSD-X+Spd+DFMO (▾), or vehicle only (∘). At the indicated time, total DNA content/well was determined. Data are presented as the mean±SD for triplicate cultures from one representative experiment;
To determine the ability of polyamine transport antagonists to potentiate DFMO-induced inhibition of cell proliferation in the presence of exogenous polyamines, cells were grown for the indicated period in growth medium supplemented with 1 mM aminoguanidine, and either DFMO (1 to 5 mM), the indicated transport inhibitor (50 or 100 μM), or the combination thereof, as well as increasing concentrations of spermidine (0.1 to 300 μM). Fresh medium was added every other day, and cell mass was determined at various time points during the period of exponential growth, or at the end of the experimental period. For the latter experiments, the FBS supplement was replaced with dextran-coated charcoal-treated FBS (5%, v/v) plus 0.5 μg/ml insulin in the case of T-47D, ZR-75-1 and MCF-7 cells (U.S. Pat. No. 6,083,496).

[1] = Bioavailability of BNSD-X in drinking water: plasma and erythrocyte concentrations; type: in vivo, CD-1 mice; conditions: for Erythrocyte concentration, Spermidine / Erythrocyte concentration, Spermine / Plasma concentration, BNSD-X / Plasma concentration, Putrescine / Plasma concentration, Spermidine / Plasma concentration, Spermine: mean±S.E.
Experimental: To determine the bioavailability of BNSD-X, escalating doses of BNSD-X were dissolved in the drinking water (0, 0.25, 0.5, 1, 2 and 4%, w/v) and were made available to CD-1 mice (n=6/group) ad libitum. Animals were sacrificed after 96 h, and blood was immediately collected to determine the concentration of BNSD-X and polyamines in plasma and erythrocytes by HPLC using the dansylation method (Kabra et al. (1986) J. Chromatogr. 380:19-32).
The suitability of BNSD-X as an in vivo inhibitor of polyamine transport was next assessed in the mouse. We first determined the bioavailability of the compound by adding escalating doses of BNSD-X (0, 0.25, 0.5, 1.0, 2.0 and 4.0% (w/v)) in the drinking water of CD-1 mice. Mice were sacrificed after 4 d and the concentration of BNSD-X and polyamines was determined in plasma and erythrocytes (Tables 3 and 4). […] The plasma concentration reached by the chronic drinking of a 1% (w/v) solution of BNSD-X is thus approximately equal to the Ki value of the drug as an inhibitor of spermidine uptake in breast cancer cells (see Table 1). The drug had no effect on the plasma concentration of either putrescine, spermidine or spermine. […] These pharmacokinetic properties indicate that BNSD-X can be administered by a very convenient route to animals up to a dose sufficient in principle to inhibit the major fraction of the uptake of spermidine from the plasma.

[2] = Plasma level of BNSD-X after gavage; type: in vivo, mice; conditions: solid BNSD-X, 1 g/kg body weight by gavage
[3] = 0.25% (w/v) BNSD-X in drinking water, 96 h
[4] = 0.50% (w/v) BNSD-X in drinking water, 96 h
[5] = 1.0% (w/v) BNSD-X in drinking water, 96 h

NCCCN(CCCN)Cc1ccc(CN(CCCN)CCCN)cc1 [28a, N,N,N′,N′-tetrakis-(3-aminopropyl)-p-diaminoxylene]
effect on growth inhibition by DFMO, T-47D (T-47D cells): did not markedly increase the extent of growth inhibition observed with DFMO alone
Erythrocyte concentration, Spermidine [1, 3]: 1975 ± 236 nmol/L packed erythrocytes
Erythrocyte concentration, Spermine [1, 3]: 60 ± 14 nmol/L packed erythrocytes
Plasma concentration, BNSD-X [1, 3]: 6 ± 3 nM
Plasma concentration, Putrescine [1, 3]: 108 ± 11 nM
Plasma concentration, Spermidine [1, 3]: 147 ± 6 nM
Plasma concentration, Spermine [1, 3]: 24 ± 1 nM
Erythrocyte concentration, Spermidine [1, 4]: 2762 ± 560 nmol/L packed erythrocytes
Erythrocyte concentration, Spermine [1, 4]: 95 ± 12 nmol/L packed erythrocytes
Plasma concentration, BNSD-X [1, 4]: 32 ± 6 nM
Plasma concentration, Putrescine [1, 4]: 106 ± 10 nM
Plasma concentration, Spermidine [1, 4]: 137 ± 18 nM
Plasma concentration, Spermine [1, 4]: 31 ± 6 nM
Erythrocyte concentration, Spermidine [1, 5]: 2079 ± 291 nmol/L packed erythrocytes
Erythrocyte concentration, Spermine [1, 5]: 83 ± 23 nmol/L packed erythrocytes
Plasma concentration, BNSD-X [1, 5]: 129 ± 33 nM
Plasma concentration, Putrescine [1, 5]: 117 ± 19 nM
Plasma concentration, Spermidine [1, 5]: 168 ± 15 nM
Plasma concentration, Spermine [1, 5]: 38 ± 3 nM
water consumption ([1]; BNSD-X concentrations higher than 1.0% (2.0 and 4.0%) in drinking water): decreased drastically
effect on the plasma concentration of putrescine, spermidine or spermine ([1]; BNSD-X in drinking water, 96 h): no effect
accumulation into erythrocytes ([1]; BNSD-X up to 1.0% in drinking water): did not accumulate into erythrocytes
oral absorption ([1]; in drinking water): readily absorbed orally
plasma half-life [2]: > 6 h
plasma concentration after gavage ([2]; after 1 h, n=5): 450 ± 71 nM
